The conditions of this data set: 298.15 K; 101.33 kPa; Liquid; Vibrating tube method.

Drawing on the NIST ThermoML archive (doi:10.1021/acs.jced.5b00542), this text covers mass density for four compounds.

Numbers after ± are expanded uncertainties.

What is called mass density is mass per unit of volume. For `CC(C)O` [propan-2-ol], the mass density turned out to be 798 ± 20 kg/m3.
In the case of `C1CCCCC1` [cyclohexane] it was 779 ± 20 kg/m3; in that of `c1ccccc1` [benzene], 874 ± 20 kg/m3; in that of `CCCCCC` [hexane], 659 ± 20 kg/m3.
